Test results: US8895585B2, “Nicotinamide derivative or salt thereof” (FUJIFILM Corporation, priority 2010, dated 2014)

Assays:
[1] = target: T1, glutathione S-transferase (GST)-fused full-length human Syk protein (Homo sapiens, UniProt P43405); experiment: Syk enzyme assay; assay type: biochemical; conditions: Syk enzyme assay, Test Example 1; read-out: IC50 of Syk-inhibitory activity
T1 construct: (GST)-fused full-length human Syk protein; GST (glutathione S-transferase); purchased Carna Biosciences
How it was run: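 GST-tagged full-length human Syk (baculovirus) preincubated with compound 15 min at room temperature (pH 7.0, 10 mM MgCl2), then reacted 40 min with 0.4 μM biotinylated peptide substrate and 27 μM ATP (final). Phosphorylation read by HTRF (615/665 nm) after EDTA stop; IC50 reported.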

THP-1 cells = experiment: TNFα generation assay; assay type: cell-based, human; conditions: Homo sapiens, THP-1, THP-1 cells; Table 22; read-out: IC50 in TNFα generation assay
How it was run: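 Secreted TNFα in supernatant quantified by ELISA or AlphaLISA after 7 h culture on human IgG-coated wells (10 μg/ml coating). Cells were IFN-γ-differentiated THP-1 (10 ng/ml, 2 days), exposed to compound for 30 min at room temperature before plating.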

Row | IC50 [1] | IC50 (THP-1 cells) | Compound
1 | < 0.01 µM | 0.065 to 0.13 µM | COc1cc(Nc2nc(N[C@H](c3ccc(F)cc3)[C@H](C)N)c(F)cc2C(N)=O)ccn1 [Example 006-556, 6-(((1R,2S)-2-amino-1-(4-fluorophenyl)propyl)amino)-5-fluoro-2-((2-methoxypyridin-4-yl)amino)nicotinamide]
2 | < 0.01 µM | 0.13 to 0.2 µM | COc1cc(Nc2nc(N[C@H](c3ccc(F)cc3)[C@H](C)N)c(F)cc2C(N)=O)cc(OC)n1 [Example 006-557, 6-(((1R,2S)-2-amino-1-(4-fluorophenyl)propyl)amino)-2-((2,6-dimethoxypyridin-4-yl)amino)-5-fluoronicotinamide]
3 | < 0.01 µM | 0.065 to 0.13 µM | Cc1cc(Nc2nc(N[C@H](c3ccc(F)cc3)[C@H](C)N)c(F)cc2C(N)=O)cnc1C [Example 006-558, 6-(((1R,2S)-2-amino-1-(4-fluorophenyl)propyl)amino)-2-((5,6-dimethylpyridin-3-yl)amino)-5-fluoronicotinamide]
4 | < 0.01 µM | 0.065 to 0.13 µM | COCCOc1cc(Nc2nc(N[C@H](c3ccc(F)cc3)[C@H](C)N)c(F)cc2C(N)=O)ccn1 [Example 006-559, 6-(((1R,2S)-2-amino-1-(4-fluorophenyl)propyl)amino)-5-fluoro-2-((2-(2-methoxyethoxy)pyridin-4-yl)amino)nicotinamide]
5 | < 0.01 µM | 0.13 to 0.2 µM | CC[C@@H](Nc1nc(Nc2ccc3c(c2)c(N2CCOCC2)nn3C)c(C(N)=O)cc1F)[C@H](C)N [Example 006-563, 6-(((2S,3R)-2-aminopentan-3-yl)amino)-5-fluoro-2-((1-methyl-3-morpholino-1H-indazol-5-yl)amino)nicotinamide]
6 | 0.1 to 1 µM | 0.065 to 0.13 µM | COc1ncc(Nc2nc(N[C@@H]3CCCC[C@@H]3N)c(F)cc2C(N)=O)cc1N1CCOCC1 [Example 006-564, 6-(((1R,2S)-2-aminocyclohexyl)amino)-5-fluoro-2-((6-methoxy-5-mopholinopyridin-3-yl)amino)nicotinamide]
7 | 0.1 to 1 µM | 0.065 to 0.13 µM | CCOc1ncc(Nc2nc(N[C@@H]3CCCC[C@@H]3N)c(F)cc2C(N)=O)cc1N1CCOCC1 [Example 006-565, 6-(((1R,2S)-2-aminocyclohexyl)amino)-2-((6-ethoxy-5-morpholinopyridin-3-yl)amino)-5-fluoronicotinamide]
8 | 0.01 to 0.05 µM | 0.13 to 0.2 µM | CCOc1ncc(Nc2nc(N[C@@H]3CCCC[C@@H]3N)c(F)cc2C(N)=O)cc1F [Example 006-572, 6-(((1R,2S)-2-aminocyclohexyl)amino)-2-((6-ethoxy-5-fluoropyridin-3-yl)amino)-5-fluoronicotinamide]
9 | 0.01 to 0.05 µM | 0.13 to 0.2 µM | COCCOc1ncc(Nc2nc(N[C@@H]3CCCC[C@@H]3N)c(F)cc2C(N)=O)cc1-n1cccn1 [Example 006-575, 6-(((1R,2S)-2-aminocyclohexyl)amino)-2-((6-(2-methoxyethoxy)-5-(1H-pyrazol-1-yl)pyridin-3-yl)amino)-5-fluoronicotinamide]
10 | < 0.01 µM | < 0.065 µM | CCn1ncc2c(Nc3nc(N[C@H](C4CC4)[C@H](C)N)c(F)cc3C(N)=O)cccc21 [Example 006-576, 6-(((1R,2S)-2-amino-1-cyclopropylpropyl)amino)-2-((1-ethyl-1H-indazol-4-yl)amino)-5-fluoronicotinamide]
11 | < 0.01 µM | < 0.065 µM | C[C@H](N)[C@H](Nc1nc(Nc2ccc3c(c2)c(F)nn3C)c(C(N)=O)cc1F)C1CC1 [Example 006-577, 6-(((1R,2S)-2-amino-1-cyclopropylpropyl)amino)-2-((3-fluoro-1-methyl-1H-indazol-5-yl)amino)-5-fluoronicotinamide]
12 | < 0.01 µM | 0.065 to 0.13 µM | CCc1nn(C)c2ccc(Nc3nc(N[C@H](C4CC4)[C@H](C)N)c(F)cc3C(N)=O)cc12 [Example 006-578, 6-(((1R,2S)-2-amino-1-cyclopropylpropyl)amino)-2-((3-ethyl-1-methyl-1H-indazol-5-yl)amino)-5-fluoronicotinamide]
